The values that follow come from ChEMBL document CHEMBL6074684, “Structure-activity relationship study of novel evodiamine amino acid conjugates with potent anti-colorectal cancer efficacy” (Eur J Med Chem, 2025).

Data set [1] concerns HT-29. Nature of the data set: Antiproliferative activity against human HT-29 cells assessed as inhibition of cell growth incubated for 72 hrs by MTT assay. The conditions noted are these: HT-29, 72 h. The class given is functional, cell-based. A general note: Tetrazolium assays rely on reduction of a dye to a coloured formazan, in cell work by metabolically active cells.
Data set [2] relates to HCT-116. Description: Antiproliferative activity against human […] cells assessed as inhibition of cell growth incubated for 72 hrs by MTT assay. The class given is functional, cell-based. The conditions noted are these: HCT-116, 72 h.
The test system of data set [3] is LoVo. Nature of the data set: Antiproliferative activity against human LoVo cells assessed as inhibition of cell growth incubated for 72 hrs by MTT assay. The class given is functional, cell-based.
Data set [4] has as its system RKO. Description: Antiproliferative activity against human RKO cells assessed as inhibition of cell growth incubated for 72 hrs by MTT assay. The class given is functional, cell-based.
Data set [5] can be described thus: Aqueous solubility of compound by HPLC analysis. The class given is physicochemical.
The nature of data set [6]: Half-life in male Sprague-Dawley rat at 50 mg/kg, ip measured after 24 hrs by LC-MS/MS analysis. The class given is ADME, organism-based. As to conditions: in vivo.
The nature of data set [7]: Tmax in male Sprague-Dawley rat at 50 mg/kg, ip measured after 24 hrs by LC-MS/MS analysis. The class given is ADME, organism-based. As to conditions: in vivo.
Data set [8] can be described thus: Cmax in male Sprague-Dawley rat at 50 mg/kg, ip measured after 24 hrs by LC-MS/MS analysis. The class given is ADME, organism-based. As to conditions: in vivo.
The nature of data set [9]: AUC (0 to t) in male Sprague-Dawley rat at 50 mg/kg, ip measured after 24 hrs by LC-MS/MS analysis. The class given is ADME, organism-based. The conditions noted are these: in vivo.
For data set [10], the system named is LoVo. Description: Antiproliferative activity against human LoVo cells assessed as reduction in cell viability measured after 24 hrs. The class given is functional, cell-based. As to conditions: dose 40-200 nmol/L.
Data set [11] has as its system RKO. Nature of the data set: Antiproliferative activity against human RKO cells assessed as reduction in cell viability measured after 24 hrs. The class given is functional, cell-based. The conditions noted are these: dose 40-200 nmol/L.
Data set [12] concerns LoVo. Description: Cell cycle arrest in human LoVo cells assessed as accumulation of cells at G1 phase cells at 90 nM incubated for 24 hrs by […]PI staining based flow cytometric analysis (reference value: 29.69 %). The class given is functional.
For data set [13], the system named is LoVo. Nature of the data set: Cell cycle arrest in human LoVo cells assessed as accumulation of cells at G2 phase cells at 90 nM incubated for 24 hrs by […]PI staining based flow cytometric analysis (reference value: 14.84 %). The class given is functional. In general terms: A flow cytometer gives signals particle by particle.
In data set [14] the test system is LoVo. Description: Cell cycle arrest in human LoVo cells assessed as accumulation of cells at S phase cells at 90 nM incubated for 24 hrs by […]PI staining based flow cytometric analysis (reference value: 54.99 %). The class given is functional.
Data set [15] concerns RKO. Nature of the data set: Cell cycle arrest in human RKO cells assessed as accumulation of cells at G1 phase at 90 nM incubated for 24 hrs by […]PI staining based flow cytometric analysis (reference value: 35.29 %). The class given is functional.
In data set [16] the test system is RKO. Nature of the data set: Cell cycle arrest in human RKO cells assessed as accumulation of cells at G2 phase at 90 nM incubated for 24 hrs by […]PI staining based flow cytometric analysis (reference value: 20.07 %). The class given is functional.
Data set [17] has as its system RKO. Nature of the data set: Cell cycle arrest in human RKO cells assessed as accumulation of cells at S phase at 90 nM incubated for 24 hrs by […]PI staining based flow cytometric analysis (reference value: 43.36 %). The class given is functional.
The test system of data set [18] is LoVo. Nature of the data set: Induction of morphological changes in human LoVo cells assessed as appearance of condensed morphology at 90 nM incubated for 24 hrs by Giemsa staining based microscopic analysis. The class given is functional, cell-based.
The test system of data set [19] is LoVo. Nature of the data set: Induction of morphological changes in human LoVo cells assessed as appearance of contracted nucleus at 90 nM incubated for 24 hrs by Giemsa staining based microscopic analysis. The class given is functional, cell-based.
For data set [20], the system named is RKO. Description: Induction of morphological changes in human RKO cells assessed as appearance of condensed morphology at 90 nM incubated for 24 hrs by Giemsa staining based microscopic analysis. The class given is functional, cell-based.
Data set [21] has as its system RKO. Nature of the data set: Induction of morphological changes in human RKO cells assessed as appearance of contracted nucleus at 90 nM incubated for 24 hrs by Giemsa staining based microscopic analysis. The class given is functional, cell-based.
Data set [22] has as its system LoVo. Description: Induction of apoptosis in human LoVo cells assessed as apoptosis rate at 90 nM incubated for 24 hrs by Annexin V/PI staining based flow cytometric analysis (reference value: 4.71 %). The class given is functional.
Data set [23] has as its system RKO. Description: Induction of apoptosis in human RKO cells assessed as apoptosis rate at 90 nM incubated for 24 hrs by Annexin V/PI staining based flow cytometric analysis (reference value: 4.87 %). The class given is functional.
Data set [24] can be described thus: Apparent clearance during terminal phase in male Sprague-Dawley rat at 50 mg/kg, ip measured after 24 hrs by LC-MS/MS analysis. The conditions noted are these: in vivo, read-out: CLz/F (converted). The class given is ADME, organism-based.
In data set [25] the test system is Mitochondrial membrane. Nature of the data set: Induction of mitochondrial membrane potential loss in human LoVo cells assessed as decrease in TMRE positive cells at 90 nM incubated for 24 hrs by TMRE staining based flow cytometric analysis. The class given is cell membranes.
Data set [26] concerns Mitochondrial membrane. Description: Induction of mitochondrial membrane potential loss in human RKO cells assessed as decrease in TMRE positive cells at 90 nM incubated for 24 hrs by TMRE staining based flow cytometric analysis. The class given is cell membranes.
In data set [27] the test system is LoVo. Nature of the data set: Antitumor activity against human LoVo cells xenografted in male BALB/c nude mouse assessed as tumor growth inhibition at 40 mg/kg, ip administered once daily for 14 days relative to control. As to conditions: 336 h, time 14 day, read-out: TGI. The class given is functional. For orientation: In xenograft studies the graft and the host belong to different species.

Data set [28] is described as follows: Toxicity in male BALB/c nude mouse xenografted with human LoVo cells assessed as body weight loss at 40 mg/kg, ip administered once daily for 14 days. The class given is organism-based. The conditions noted are these: in vivo, 336 h, time 14 day.
For data set [29], the system named is HT-29. Nature of the data set: Antitumor activity against human HT-29 cells xenografted in male BALB/c nude mouse assessed as tumor growth inhibition at 0.5 mg/kg, ip administered once daily for 14 days relative to control. As to conditions: HT-29, 336 h, time 14 day, read-out: TGI. The class given is functional.
Data set [30] deals with LoVo. Nature of the data set: Antitumor activity against human LoVo cells xenografted in male BALB/c nude mouse assessed as tumor growth inhibition at 0.5 mg/kg, ip administered once daily for 14 days. The class given is functional, organism-based. As to conditions: time 14.0 day.
Data set [31] can be described thus: Toxicity in male BALB/c nude mouse xenografted with human LoVo cells assessed as body weight loss at 0.5 mg/kg, ip administered once daily for 14 days. The class given is organism-based. As to conditions: in vivo, 336 h, time 14 day.
Data set [32] in a line: Toxicity in male BALB/c nude mouse xenografted with human LoVo cells assessed as animal death at 0.5 mg/kg, ip administered once daily for 14 days. The class given is organism-based. As to conditions: in vivo, 336 h, time 14 day.
A short description of data set [33]: Toxicity in male BALB/c nude mouse xenografted with human HT-29 cells assessed as body weight loss at 0.5 mg/kg, ip administered once daily for 14 days. The class given is organism-based. As to conditions: in vivo, 336 h, time 14 day.
A short description of data set [34]: Toxicity in male BALB/c nude mouse xenografted with human HT-29 cells assessed as animal death at 0.5 mg/kg, ip administered once daily for 14 days. The class given is organism-based. The conditions noted are these: in vivo, 336 h, time 14 day.

Values after ≈ are worked out from the molar mass of the structure shown. Active and inactive are the calls of the source. No cut-off for these calls is given here.

Usually IC50 stands for the midpoint of a concentration-inhibition curve. Usually solubility stands for the dissolved amount per volume that the medium holds. Lower therefore signals little dissolved substance. The half-life is how long it takes for the measured level to halve. Low readings indicate rapid decline, high ones slow decline. In general, Tmax refers to the time at which the peak concentration occurs. The Cmax is the highest concentration seen after dosing. As a reminder, the AUC(0-t) is the area under the concentration-time curve up to a stated or last time point. Higher therefore signals more exposure. With `O=C1c2cc(F)ccc2N(c2cccc(F)c2)[C@@H]2c3[nH]c4ccc(O)cc4c3CCN12`, the IC50 in data set [1] amounted to 210 nM; in [2], 270 nM; in [3], 170 nM; in [4], 130 nM. The same compound had a solubility in data set [5] of 3.24 µg/mL (≈ 7.76 µM). This compound also gave a half-life in data set [6] of 4.18 h. Also, the Tmax in data set [7] was 0.5 h. This compound displayed a Cmax in data set [8] of 2190 ng/mL. The same compound registered an AUC(0-t) at 24 h in data set [9] of 4350 ng·h/mL. The Activity entry in data set [10] was “Dose-dependent-effect”; in data set [11] it was “Dose-dependent-effect”; in [12], 18.84%; in data set [13], 31.88%; in data set [14], 48.04%; in data set [15], 35.52%. In addition, the Activity in [16] is listed as 42.34%; in data set [17] it was 21.88%; in data set [22] it was 25.44%; in data set [23] it was 13.9%; in data set [28], “Toxic”. Also, the result in data set [18], in [19], in [20], in [21], in data set [25] and in data set [26] was Active. Also, in data set [24], the CL/F was 77.8 mL/min/kg. Also, the inhibition in vivo at 40 mg/kg in [27] was determined as 51.2%.

In the case of `CC[C@@]1(O)C(=O)OCc2c1cc1n(c2=O)Cc2cc3c(CN(C)C)c(O)ccc3nc2-1` [TOPOTECAN], in [29], the inhibition in vivo at 0.5 mg/kg came to 70.7%. Moreover, the result in data set [30] was Active. Moreover, the Activity result in data set [31], in [32], in data set [33] and in data set [34] was “Toxic” throughout.
